Measurements published in US6475751B2, “Scintillation proximity assay for type II fatty acid biosynthetic enzymes” (Virginia Commonwealth University, priority 2000, dated 2002).
Like-named read-outs stand apart in the source and are kept apart here.

Key:
[1] = molecular target: T1, S. glaucescens His6-KASIII (Streptomyces glaucescens, UniProt Q54206); test: KASIII scintillation proximity assay (SPA); assay type: biochemical
T1 construct: His6 (N); made in house; host or cells: Escherichia coli BL21 (DE3 pLysE)/pLH14
T1 sequence (Q54206 1-333): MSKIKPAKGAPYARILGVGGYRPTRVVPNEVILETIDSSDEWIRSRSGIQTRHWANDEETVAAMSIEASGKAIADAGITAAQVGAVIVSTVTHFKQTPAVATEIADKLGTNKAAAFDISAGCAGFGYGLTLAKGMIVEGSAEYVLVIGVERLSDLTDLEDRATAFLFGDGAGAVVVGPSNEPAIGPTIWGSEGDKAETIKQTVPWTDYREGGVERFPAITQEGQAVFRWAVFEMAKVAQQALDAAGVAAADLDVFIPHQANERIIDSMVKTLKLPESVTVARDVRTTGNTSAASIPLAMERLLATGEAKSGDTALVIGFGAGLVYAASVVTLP
Experimental: (§1) The standard reaction mixture contained the following components in a final volume of […]: S. glaucescens His6-KASIII […], 100 mM imidazole, pH 7.0, 2.6 μM BMACP (MACP), [^3H] acetyl-CoA 0.6 μM (0.24 μCi, specific activity 20 Ci/mmol). The reaction was initiated by adding [^3H] acetyl-CoA and incubated at 30 ° C. for 10 minutes.
(§2) For the KASIII SPA, the reaction was terminated by the sequential addition of 100 μl of 100% ethanol (which denatures the KASIII) and 50 μl of the SPA bead solution (10 mg/ml). The mixture was then incubated for 2 hr at 23° C. with gentle shaking. After allowing the beads to settle the sealed OptiPlate (Packard, Meriden, Conn.) was counted using a TopCount (Packard) set up in SPA mode. A background signal was obtained by carrying out the assay in absence of KASIII. This background signal was subtracted from KASIII SPA signals.
(§3) In all inhibitor studies, the inhibitor was first dissolved in DMSO and preincubated with enzyme for 15 minutes at 23° C., prior to addition of substrate. The final DMSO concentration in each of these assays remained below 1%.
The apparent Km for MACP with the S. glaucescens KASIII was determined using the standard TCA precipitation assay with the following modifications: tritiated acetyl-CoA at a final concentration of 13.3 μM (0.4 μCi, specific activity 1 Ci/mmol ) was incubated at 30° C. for 5 min with various concentrations of MACP (0.39-18.7 μM) in a volume of 30 μl. The apparent Km for BMACP with the S. glaucescens KASIII was determined in SPA format. Tritiated acetyl-CoA at a final concentration of 7.5 μM (0.6 μCi, specific activity 4 Ci/mmol) was incubated at 30° C. for 9 min with various BMACP concentrations (0.28 to 9 μM).

[2] = molecular target: T1, S. glaucescens His6-KASIII; test: KASIII TCA precipitation assay; assay type: biochemical
Experimental: as §1
(§4) In the KASIII TCA precipitation assay, the reaction was quenched by the addition of 200 μl ice cold 10% TCA, incubated on ice for 10 min and centrifuged at 13,000 g for 10 min. The supernatant was discarded and the pellet was resuspended with another 200 μl of cold TCA and centrifuged. The pellet bound ^3H labeled product was dissolved in 2% SDS, 20 mM NaOH and quantitated by liquid scintillation counting. The Escherichia coli KASIII assay was performed in the same manner except that the incubation time was reduced to 2 minutes, and 0.13 μg of protein and 0.4 μM MACP (BMACP) were used in the assay.
In all inhibitor studies, the inhibitor was first dissolved in DMSO and preincubated with enzyme for 15 minutes at 23° C., prior to addition of substrate. The final DMSO concentration in each of these assays remained below 1%. […]

[3] = molecular target: T1, S. glaucescens His6-KASIII; settings: cited from earlier work
E. coli KASIII [4] = molecular target: T2, E. coli KASIII (Escherichia coli, UniProt P0A6R0); test: KASIII scintillation proximity assay (SPA); assay type: biochemical
T2 sequence (P0A6R0 whole entry): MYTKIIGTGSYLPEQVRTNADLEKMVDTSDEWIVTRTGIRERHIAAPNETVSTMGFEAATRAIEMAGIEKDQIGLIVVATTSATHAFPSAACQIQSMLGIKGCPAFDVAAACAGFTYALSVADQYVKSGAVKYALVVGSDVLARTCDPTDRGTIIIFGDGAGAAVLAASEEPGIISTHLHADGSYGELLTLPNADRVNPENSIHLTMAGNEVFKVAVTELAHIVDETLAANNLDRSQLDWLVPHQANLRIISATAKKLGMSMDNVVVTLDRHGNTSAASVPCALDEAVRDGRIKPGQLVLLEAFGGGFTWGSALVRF
Experimental: as §1, §2
as §4, with “The Escherichia coli KASIII assay was performed in the same manner except that the incubation time was reduced to 2 minutes, and 0.13 μg of protein and 0.4 μM MACP (BMACP) were used in the assay.” left out

E. coli KASIII [5] = molecular target: T2, E. coli KASIII; test: KASIII TCA precipitation assay; assay type: biochemical
Experimental: as §1, §4, §3

C[S+](C)[O-] [DMSO, Dimethyl Sulfoxide]
reduction in the SPA signal ([1]; DMSO concentration of 10% v/v): ~50% | decrease in the SPA signal ([1]; DMSO concentrations below 1.5% v/v): no significant decrease

MACP: Malonyl-Acyl Carrier Protein generated from Escherichia coli ACP and malonyl-CoA; KASIII substrate
Km ([2]; TCA-based assay, 13.3 μM tritiated acetyl-CoA, 30° C., 5 min, read-out: Km (apparent) for substrate): 6.1 ± 0.4 µM

BMACP: Biotinylated Malonyl-Acyl Carrier Protein, prepared by biotinylation of MACP using NHS-biotin; KASIII substrate
Km ([1]; SPA format, 7.5 μM tritiated acetyl-CoA, 30° C., 9 min, read-out: Km (apparent) for substrate): 7.2 ± 2.6 µM | Km ([3]; previously determined using a TCA precipitation assay, read-out: Km previously determined): 3.7 µM

C=C/C(C)=C/[C@@]1(C)SC(=O)C(C)=C1O [thiolactomycin]
IC50 (E. coli KASIII [4]): 124 ± 14 µM | IC50 (E. coli KASIII [5]): 160 ± 14 µM

NC(=O)CI [iodoacetamide, Iodoacetamide, reference compound]
IC50 [1]: 15 ± 1 µM | IC50 ([2]; TCA precipitation assay, inhibitor preincubated with enzyme 15 minutes at 23° C.): 25 ± 3 µM

CC(=O)SCCNC(=O)CCNC(=O)[C@H](O)C(C)(C)COP(=O)(O)OP(=O)(O)OC[C@H]1O[C@@H](n2cnc3c(N)ncnc32)[C@H](O)[C@@H]1OP(=O)(O)O [acetyl-CoA]
Km ([1]; SPA, suggested by linear relationship over 0-1.6 μM substrate, read-out: Km for acetyl-CoA): > 1.6 µM | Km ([3]; previous analyses using a TCA-precipitation assay, read-out: Km for acetyl-CoA): 3 µM
